Assay results as given in paper PMC8794255, “Small molecule inhibitor of Igf2bp1 represses Kras and a pro-oncogenic phenotype in cancer cells” (RNA Biology, 2021).

Experiments:
ES2 cells = assay: Cell proliferation assay (Incucyte), ES2; assay type: cell-based, human; conditions: ES2, up to 20 μM
Procedure: ES2, H1299 and HEK293 cells were seeded in a 96 well plate (5X10^3 cells per well) for 24 hours before adding the compound at increasing concentrations. After an additional 24 hours, the plate was incubated in an IncuCyte® S3 Live-Cell Analysis System (Essen BioScience). The wells were filmed for 72 hours, and then analysed for proliferation rate Using IncuCyte® S3 Live-Cell Analysis System (Essen BioScience)

[1] = tested on: Igf2bp1-luciferase reporter fusions in RKO cells; assay: Split-luciferase assay (Igf2bp1 dimerization) in RKO cells; assay type: cell-based; conditions: 50 μM 7773
Procedure: Vectors expressing different fragments of split luciferase reporters with flexible linker were procured from Addgene (catalogue # 58786, 58787, 58788 and 58789). The vectors were digested with EcoRI and XhoI. EcoRI and XhoI restriction enzyme sites were added to 5′ and 3′ ends of the coding region of IGF2BP1, respectively, using PCR. We constructed four split luciferase reporter vectors by cloning IGF2BP1 in different orientations with the luciferase fragments . Primers used for the amplification of IGF2BP1 were: […]
The RKO cells were seeded in DMEM with 10% calf serum 24 hrs prior to the transfection. Transfection was done using Lipofectamine 2000 with reporter plasmids and Renilla-luciferase expressing vector (as internal control). After 24 hrs, cells were lysed using passive lysis buffer (Promega catalogue # E1941). The lysates were cleared by centrifugation and its 20 μL volume was mixed with 100 μL of luciferase substrate solution for luminescence recording which was followed by addition of 100 μL of Stop-glo solution (Promega catalogue # E1910) with an additional luminescence reading. Both readings were detected by using GloMax 20/20 Luminometer (Promega), and the final value for each sample was the ratio of their two respective readings. […]

[2] = tested on: LKR-M cells expressing GFP alone; assay: Wound healing assay, LKR-M cells expressing GFP alone; assay type: cell-based, mouse; conditions: 20 μM 7773 vs DMSO
Procedure: (§1) Cells were seeded in 96 IncuCyte® ImageLock plates (20X10^3 cells per well) for 24 hours, to a near confluency of 95%, before the addition of increasing concentrations of compound. After a further 24 hours, wells were scratched using the IncuCyte® 96-well WoundMaker Tool, and the cells cultured for an additional 48 hours using the IncuCyte® S3 Live-Cell Analysis System (Essen BioScience). The plate was imaged at increments of 120 minutes for a period of 48 hours, and then analysed for relative wound healing.

Igf2bp1 = target: T1, Igf2bp1 (Homo sapiens, UniProt Q9NZI8); assay: Microscale thermophoresis (MST), full-length Igf2bp1; conditions: full-length protein, read-out: KD of compound binding to Igf2bp1
T1 construct: Recombinant full-length Igf2bp1 protein was labelled with RED-tris-NTA dye; made in house
T1 sequence (Q9NZI8 whole entry): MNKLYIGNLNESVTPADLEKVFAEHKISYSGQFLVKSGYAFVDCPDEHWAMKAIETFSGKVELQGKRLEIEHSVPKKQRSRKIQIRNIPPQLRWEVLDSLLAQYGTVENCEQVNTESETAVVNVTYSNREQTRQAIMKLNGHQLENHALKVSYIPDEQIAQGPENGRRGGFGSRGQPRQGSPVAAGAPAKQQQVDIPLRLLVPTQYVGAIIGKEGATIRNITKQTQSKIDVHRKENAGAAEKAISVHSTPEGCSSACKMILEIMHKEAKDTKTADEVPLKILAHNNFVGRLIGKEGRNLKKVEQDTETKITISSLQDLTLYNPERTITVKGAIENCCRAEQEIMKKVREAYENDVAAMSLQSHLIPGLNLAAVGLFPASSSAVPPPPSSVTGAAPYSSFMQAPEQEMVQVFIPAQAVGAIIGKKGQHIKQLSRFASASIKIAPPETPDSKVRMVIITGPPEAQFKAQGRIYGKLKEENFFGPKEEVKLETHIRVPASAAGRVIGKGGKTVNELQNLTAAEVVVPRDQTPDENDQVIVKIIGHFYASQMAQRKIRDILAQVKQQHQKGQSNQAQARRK
Procedure: (§2) Recombinant full-length Igf2bp1 protein was labelled with RED-tris-NTA dye using a Monolith NT His-Tag Labelling Kit (NanoTemper) while RRM12, KH12 and KH34 di-domain peptides were labelled using the Protein Labelling Kit RED NHS 2nd generation (NanoTemper). Labelled proteins were spun at 15,000 g for 5 min to eliminate aggregates. All samples were 2X labelled protein mix of Igf2bp1 (200 nM) in PBST and were combined (1:1) with serial dilutions of compound or Kras6 RNA in binding buffer (10mMTris pH = 7.5, 100 mM NaCl, 0.1 mM EDTA, 0.06% IPEGAL, 0.02 μg/μL tRNA, 2 mM DTT, 0.1 μg/μL heparin) in final volume of 20 μL, room temperature for 15 min. Samples were then loaded into standard capillaries (NanoTemper) and read in the Monolith NT.115 scanner (NanoTemper) using the red filter with reading conditions of 95% LED power and 40% MST power, 5 sec fluorescence before, 30 sec MST on, 5 sec fluorescence after and 25 sec delay between samples. Results were analysed using the MO Control software (NanoTemper) for curve fitting to KD.

HEK293 cells = assay: Wound healing (cell migration) assay, HEK293; assay type: cell-based, human
Procedure: as §1

Igf2bp1 KH12 di-domain = target: T2, Igf2bp1 KH12 di-domain (Homo sapiens, UniProt Q9NZI8); assay: MST, Igf2bp1 KH12 di-domain; assay type: binding
T2 construct: 6xHis/GST (N, cleaved yes); made in house; host or cells: E. coli BL21(DE3)
T2 sequence (Q9NZI8 194-369): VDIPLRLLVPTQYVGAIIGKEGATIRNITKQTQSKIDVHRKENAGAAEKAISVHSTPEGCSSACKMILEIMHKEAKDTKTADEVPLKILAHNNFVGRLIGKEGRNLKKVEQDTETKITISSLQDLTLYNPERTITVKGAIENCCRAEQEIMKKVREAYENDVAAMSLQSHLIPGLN
Procedure: as §2
The open reading frame of Igf2bps were cloned into the pET-21(d) plasmid (Novagen) between the Nco1 and Xho1 sites, as previously described. […]

[3] = tested on: wild-type luciferase in RKO cells; assay: Control (wild-type) luciferase in RKO cells; assay type: cell-based; conditions: 50 μM 7773
Procedure: The RKO cells were seeded in DMEM with 10% calf serum 24 hrs prior to the transfection. Transfection was done using Lipofectamine 2000 with reporter plasmids and Renilla-luciferase expressing vector (as internal control). After 24 hrs, cells were lysed using passive lysis buffer (Promega catalogue # E1941). The lysates were cleared by centrifugation and its 20 μL volume was mixed with 100 μL of luciferase substrate solution for luminescence recording which was followed by addition of 100 μL of Stop-glo solution (Promega catalogue # E1910) with an additional luminescence reading. Both readings were detected by using GloMax 20/20 Luminometer (Promega), and the final value for each sample was the ratio of their two respective readings. To test the effects of 7773, transfected cells with reporter plasmids were washed with PBS after 24 hrs of transfection and incubated with medium containing 7773.

La = target: T3, La (Homo sapiens, UniProt P05455); assay: MST, La protein; assay type: binding
T3 sequence (P05455 1-408): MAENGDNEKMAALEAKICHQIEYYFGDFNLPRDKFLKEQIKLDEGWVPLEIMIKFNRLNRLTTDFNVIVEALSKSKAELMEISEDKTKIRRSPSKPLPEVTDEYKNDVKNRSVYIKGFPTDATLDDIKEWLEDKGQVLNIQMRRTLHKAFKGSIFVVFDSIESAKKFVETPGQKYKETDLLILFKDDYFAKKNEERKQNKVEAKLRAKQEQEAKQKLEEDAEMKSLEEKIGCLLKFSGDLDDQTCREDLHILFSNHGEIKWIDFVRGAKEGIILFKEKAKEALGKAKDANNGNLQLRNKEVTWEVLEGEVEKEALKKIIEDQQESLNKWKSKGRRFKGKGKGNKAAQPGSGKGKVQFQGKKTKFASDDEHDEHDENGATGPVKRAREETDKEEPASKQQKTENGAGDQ

SMILES: O=C(c1ccc(Cn2cnnn2)cc1)N1CCCC(Nc2ccc3c(c2)OCO3)C1 (stereo not drawn) [compound 7773]
- Cell proliferation (ES2 cells): remarkably unaffected
- Effect on split-luciferase luminescence [1]: significantly reduced luminescence
- Effect on migration of cells expressing GFP alone [2]: unaffected
- Kd (Igf2bp1): 17 µM
- Wound healing (HEK293 cells; HEK293, 20 μM): strongly inhibited
- Wound healing (HEK293 cells; HEK293, lowest concentration 5 μM): discernible inhibition
- Binding to KH12 (Igf2bp1 KH12 di-domain): no binding was observed
- Effect on activity of wild-type luciferase [3]: did not affect
- Binding to La (La): No binding
